Reference: ChEMBL document CHEMBL1697781, “Assessment of the health effects of chemicals in humans: II. Construction of an adverse effects database for QSAR modeling” (Curr Drug Discov Technol, 2004)

Assays:
Conditions in all cases: human; call rule not given here
[1] = system: Hepatotoxicity; experiment: FDA HLAED, liver enzyme composite activity
[2] = system: Hepatotoxicity; experiment: FDA HLAED, alkaline phosphatase increase
[3] = system: Hepatotoxicity; experiment: FDA HLAED, serum glutamic oxaloacetic transaminase (SGOT) increase
[4] = system: Hepatotoxicity; experiment: FDA HLAED, serum glutamic pyruvic transaminase (SGPT) increase
[5] = system: Hepatotoxicity; experiment: FDA HLAED, lactate dehydrogenase (LDH) increase
[6] = system: Hepatotoxicity; experiment: FDA HLAED, gamma-glutamyl transferase (GGT) increase

Row | Compound | Composite Activity - Active [1] | Composite Activity - Marginal [1] | Composite Activity - Score [1] | Alkaline Phosphatase Increase - Activity Score [2] | Alkaline Phosphatase Increase - Index Value [2] | Alkaline Phosphatase Increase - Number of Reports [2] | SGOT Increase - Activity Score [3] | SGOT Increase - Index Value [3] | SGOT Increase - Number of Reports [3] | SGPT Increase - Activity Score [4] | SGPT Increase - Index Value [4] | SGPT Increase - Number of Reports [4] | LDH Increase - Activity Score [5] | LDH Increase - Index Value [5] | LDH Increase - Number of Reports [5] | GGT Increase - Activity Score [6] | GGT Increase - Index Value [6] | GGT Increase - Number of Reports [6] | also measured
1 | CCCCCCC(=O)O[C@H]1CC[C@H]2[C@@H]3CCc4cc(O)ccc4[C@H]3CC[C@]12C [ESTRADIOL ENANTHATE] | 0 | 0 | Inactive | Inactive | 1.5 | >= 4 | Inactive | 2.8 | >= 4 | Inactive | 2.1 | >= 4 | Inactive | 1.2 | >= 4 | Inactive | 0.3 | < 4 | 
2 | C[C@]12CC[C@@H]3c4ccc(OC(=O)Cc5ccc(N(CCCl)CCCl)cc5)cc4CC[C@H]3[C@@H]1CC[C@@H]2OC(=O)Cc1ccc(N(CCCl)CCCl)cc1 [ESTRADIOL MUSTARD] | 0 | 0 | Inactive | Inactive | 0 | < 4 | Inactive | 0 | < 4 | Inactive | 0 | < 4 | Inactive | 0 | < 4 | Inactive | 0 | < 4 | 
3 | CCCCCCCCCCC(=O)O[C@H]1CC[C@H]2[C@@H]3CCc4cc(O)ccc4[C@H]3CC[C@]12C [ESTRADIOL UNDECYLATE] | 0 | 0 | Inactive | Inactive | 1.5 | >= 4 | Inactive | 2.8 | >= 4 | Inactive | 2.1 | >= 4 | Inactive | 1.2 | >= 4 | Inactive | 0.3 | < 4 | 
4 | CCCCC(=O)O[C@H]1CC[C@H]2[C@@H]3CCc4cc(O)ccc4[C@H]3CC[C@]12C [ESTRADIOL VALERATE] | 0 | 0 | Inactive | Inactive | 1.5 | >= 4 | Inactive | 2.8 | >= 4 | Inactive | 2.1 | >= 4 | Inactive | 1.2 | >= 4 | Inactive | 0.3 | < 4 | 
5 | C[C@]12CC[C@@H]3c4ccc(O)cc4CC[C@H]3[C@@H]1CC[C@@H]2O [ESTRADIOL] | 0 | 0 | Inactive | Inactive | 1.5 | >= 4 | Inactive | 2.8 | >= 4 | Inactive | 2.1 | >= 4 | Inactive | 1.2 | >= 4 | Inactive | 0.3 | < 4 | 
6 | C[C@]12CC[C@@H]3c4ccc(OC(=O)N(CCCl)CCCl)cc4CC[C@H]3[C@@H]1CC[C@@H]2O [ESTRAMUSTINE] | 1 | 0 | Inactive | Active | 43.7 | < 4 | Inactive | 0 | < 4 | Inactive | 0 | < 4 | Inactive | 0 | < 4 | Inactive | 0 | < 4 | 
7 | CCc1cccc2c3c([nH]c12)C(CC)(CC(=O)O)OCC3 (stereo unspecified) [ETODOLAC] | 0 | 0 | Inactive | Inactive | 0.8 | >= 4 | Inactive | 1.1 | >= 4 | Inactive | 1.4 | >= 4 | Inactive | 0.6 | >= 4 | Inactive | 0.8 | >= 4 | 
8 | CCOC(=O)c1cncn1[C@H](C)c1ccccc1 [ETOMIDATE] | 0 | 0 | Inactive | Inactive | 0 | < 4 | Inactive | 0 | < 4 | Inactive | 0 | < 4 | Inactive | 0 | < 4 | Inactive | 0 | < 4 | 
9 | COc1cc([C@@H]2c3cc4c(cc3[C@@H](O[C@@H]3O[C@@H]5CO[C@@H](C)O[C@H]5[C@H](O)[C@H]3O)[C@H]3COC(=O)[C@H]23)OCO4)cc(OC)c1O [ETOPOSIDE] |  |  |  | Inactive | 0.8 | < 4 | Inactive | 0.4 | < 4 | Inactive | 0 | < 4 | Inactive | 0.4 | < 4 | Inactive | 0 | < 4 | Composite Activity - Active ([1]; Liver): 0; Composite Activity - Marginal ([1]; Liver): 0; Composite Activity - Score ([1]; Liver): Inactive
10 | CCOC(=O)/C=C(C)/C=C/C=C(C)/C=C/c1c(C)cc(OC)c(C)c1C [ETRETINATE] | 2 | 1 | Active | Active | 5.3 | >= 4 | Active | 5.3 | >= 4 | Marginally Active | 3.2 | >= 4 | Inactive | 2.9 | >= 4 | Inactive | 0.6 | < 4 | 
11 | CC(=O)OCC(CCn1cnc2cnc(N)nc21)COC(C)=O [FAMCICLOVIR] | 0 | 0 | Inactive | Inactive | 0 | < 4 | Inactive | 0 | < 4 | Inactive | 0 | < 4 | Inactive | 0 | < 4 | Inactive | 0 | < 4 | 
12 | NC(N)=Nc1nc(CSCCC(N)=NS(N)(=O)=O)cs1 [FAMOTIDINE] |  |  |  | Inactive | 0.8 | >= 4 | Inactive | 0.8 | >= 4 | Inactive | 0.7 | >= 4 | Inactive | 0.4 | >= 4 | Inactive | 0.4 | >= 4 | Composite Activity - Active ([1]; Liver): 0; Composite Activity - Marginal ([1]; Liver): 0; Composite Activity - Score ([1]; Liver): Inactive
